The values below are quoted from earlier work in US20060035976A1, “Methods of preventing headaches with norepinephrine precursors” (priority 2002, published 2006).

The subject of one data set is migraine attacks. Particulars: 100 mg/day; person with Parkinson's disease, concurrently on L-DOPA, benserazide and amantadine.
The subject of the next data set is pain. Particulars: 100 mg; including a patient experiencing a cluster headache.

Structures are written as SMILES.

Consider `N[C@H](C(=O)O)[C@H](O)c1ccc(O)c(O)c1` [L-DOPS], for which, in the data set with migraine attacks, the “migraine attacks (patient report)” value is reported as “migraine attacks were resolved”. In addition, the analgesic effects entry in the data set with pain is listed as “alleged analgesic effects”.
Consider `N[C@H](C(=O)O)[C@H](O)c1ccc(O)c(O)c1` [DOPS, Threo-3-(3,4-dihydroxyphenyl)serine], for which, under “after oral administration of DOPS”, the “time that increased plasma levels of DOPS and NE remain” value is reported as “at least 12 hours”. Further, for the setting “after oral ingestion of DOPS”, the “time of peak NE levels” value is 5 h and the “time of peak plasma levels of DOPS” value is 3 h. In addition, in the data set on microvessel preparations, the “specific uptake of DOPS” value is “Specific uptake of DOPS has also been demonstrated”.
